Results published in PMC7044277 (Nature Communications, 2020).
Several values for one entry are separate records, joined by “and”; a condition that tells them apart may be missing. Equal entries are not always repeated.

Experiments:
Type in all cases: cell-based
320 non-olfactory GPCRs [1] = target: 320 non-olfactory GPCRs (Homo sapiens, UniProt Q96LA9); conditions: receptor MRGPRX4; replicate values, Fig_4g
320 non-olfactory GPCRs [2] = target: T1, 320 non-olfactory GPCRs (Homo sapiens, UniProt P47901)
T1 construct: expressed in transfected cells; host or cells: HTLA cells
T1 sequence (P47901 whole entry): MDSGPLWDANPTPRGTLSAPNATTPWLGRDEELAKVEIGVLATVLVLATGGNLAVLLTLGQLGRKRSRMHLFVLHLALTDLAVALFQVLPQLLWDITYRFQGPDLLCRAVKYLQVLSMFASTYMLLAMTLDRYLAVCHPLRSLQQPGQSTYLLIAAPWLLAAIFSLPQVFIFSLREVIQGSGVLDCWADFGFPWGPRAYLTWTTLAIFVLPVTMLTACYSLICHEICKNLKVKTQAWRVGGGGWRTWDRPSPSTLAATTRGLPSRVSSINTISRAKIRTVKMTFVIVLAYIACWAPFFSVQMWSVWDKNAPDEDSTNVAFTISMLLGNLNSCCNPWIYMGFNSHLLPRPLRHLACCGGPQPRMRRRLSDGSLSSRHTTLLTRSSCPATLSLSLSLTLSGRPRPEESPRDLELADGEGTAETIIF

320 non-olfactory GPCRs [3] = target: 320 non-olfactory GPCRs (Homo sapiens, UniProt P43220)
320 non-olfactory GPCRs (Homo sapiens, UniProt P43220), sequence (P43220 24-463): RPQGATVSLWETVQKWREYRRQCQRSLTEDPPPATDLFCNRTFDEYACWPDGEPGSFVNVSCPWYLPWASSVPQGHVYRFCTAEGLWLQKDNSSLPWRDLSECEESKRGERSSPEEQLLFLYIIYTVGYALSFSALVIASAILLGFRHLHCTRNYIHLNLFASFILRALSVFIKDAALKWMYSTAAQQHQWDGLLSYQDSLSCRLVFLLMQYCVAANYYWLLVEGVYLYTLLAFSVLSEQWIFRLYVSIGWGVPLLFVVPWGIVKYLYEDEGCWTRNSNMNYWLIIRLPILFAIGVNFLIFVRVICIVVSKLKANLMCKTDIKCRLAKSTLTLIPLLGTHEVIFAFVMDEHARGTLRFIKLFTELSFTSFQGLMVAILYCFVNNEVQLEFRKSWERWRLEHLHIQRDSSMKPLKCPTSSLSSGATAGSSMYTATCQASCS

320 non-olfactory GPCRs [4] = target: T2, 320 non-olfactory GPCRs (Homo sapiens, UniProt P46091)
T2 construct: expressed in transfected cells; host or cells: HTLA cells
T2 sequence (P46091 whole entry): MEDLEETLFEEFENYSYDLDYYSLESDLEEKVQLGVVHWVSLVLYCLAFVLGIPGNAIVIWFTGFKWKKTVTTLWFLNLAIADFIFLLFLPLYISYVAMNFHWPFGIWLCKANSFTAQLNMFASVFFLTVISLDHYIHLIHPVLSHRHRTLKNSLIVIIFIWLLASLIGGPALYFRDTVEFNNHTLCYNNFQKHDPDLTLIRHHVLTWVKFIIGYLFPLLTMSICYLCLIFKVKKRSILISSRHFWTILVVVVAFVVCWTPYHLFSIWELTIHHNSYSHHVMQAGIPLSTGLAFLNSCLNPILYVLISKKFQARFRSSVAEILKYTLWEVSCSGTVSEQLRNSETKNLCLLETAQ
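For Fold of Basal in this document: compound tested at 1 µM final concentration.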
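For GPCRome agonism screen response in this document: fold over basal response of each receptor without drug.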

320 non-olfactory GPCRs (Homo sapiens, UniProt Q96LA9), sequence (Q96LA9 whole entry): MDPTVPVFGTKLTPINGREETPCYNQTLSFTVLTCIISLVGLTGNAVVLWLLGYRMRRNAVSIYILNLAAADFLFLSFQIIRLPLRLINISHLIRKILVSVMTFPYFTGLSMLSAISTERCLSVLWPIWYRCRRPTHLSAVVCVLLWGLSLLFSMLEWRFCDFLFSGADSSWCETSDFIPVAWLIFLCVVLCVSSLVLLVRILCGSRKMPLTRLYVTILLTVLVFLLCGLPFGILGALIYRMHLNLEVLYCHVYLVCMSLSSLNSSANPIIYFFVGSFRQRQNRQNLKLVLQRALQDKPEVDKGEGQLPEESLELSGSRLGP

CCOc1cccc2cc(C(C)NCC3(O)CCCCC3)oc12 (stereo not shown) [O4LE6]
GPCRome agonism screen response (320 non-olfactory GPCRs [1]): 0.3813 and 0.7022 and 0.804 and 1.112 | Fold of Basal (320 non-olfactory GPCRs [2]): 1.0215 and 1.01 and 1.094 and 0.8472 | Fold of Basal (320 non-olfactory GPCRs [3]): 0.6919 and 1.003 and 1.157 and 1.2674 | Fold of Basal (320 non-olfactory GPCRs [4]): 1.745 and 1.544 and 1.297 and 1.2172
